Test results taken from US20240065983A1, “COMPOSITION AND METHOD FOR TREATING COVID-19” (University of South Florida, priority 2021, published 2024).

Columns and labels:
[1] = test system: SARS CoV2 variants (WA, UK B.1.1.7, SA B.1.351); type: cell-based, SARS-CoV-2
[2] = test system: SARS-CoV-2 delta; type: cell-based

CC(O)c1ccc(CCOc2ccc(CC3SC(=O)NC3=O)cc2)nc1 (stereo not drawn) [LG, leriglitazone]
expression of CoV2-N gene and S genes [1]: significantly inhibited | expression of inflammatory genes TNFα, IL-6, IL1β ([1]; LG 20 uM, all CoV2 strains): down-regulated at the transcript level | expression of N and inflammatory gene transcripts [2]: decreased expression of N and several inflammatory gene transcripts
